According to publication PMC12864978, “Covalent modification of a glutamic acid inspired by HaloTag technology” (Nature Communications, 2026):
Entries after “also recorded” stand apart in the source; their conditions may differ. Where two headings read alike, the source gives them in different places. Each block holds one compound with its values, some of them ahead of it.

Key:
[1] = molecular target: T1, PDEδ (Homo sapiens, UniProt O43924); test: Covalent modification of PDEδ by MALDI mass spectrometry; type: binding; parameters: His tag; made in house; host or cells: Escherichia coli Rosetta (BL21DE3), pET plasmids; conditions: PDEδ 20 µM, compound 60 µM, HEPES pH 7.5, 37 °C; mean ± s.e.m.
Description: The solution was briefly centrifuged before a sample was taken at the designated time for analysis by MALDI. […] Mass spectra were obtained over the m/z range 15,000–25,000 using a Bruker UltrafleXtreme XIAL DI-TOF/TOF mass spectrometer. Percentages of covalent adduct formation were estimated by the relative intensity of the respective peaks in MALDI spectra.
1. Supplementary Figures and Tables
PDEδ (20 µM) was incubated with compounds (60 µM) in HEPES
Percentages of covalent adduct formation were estimated by the relative intensity of the respective peaks in MALDI spectra. Data are presented as mean ± s.e.m.
Apparent pseudo -first order kobs was estimated by percentages of covalent adduct formation at 2 hours by MALDI. Plot of kobs (h-1) against concentration (µM) was fitted by GraphPad […]
Prism Michaelis-Menten model and separate values for kinact and KI were obtained to calculate apparent […]
PDEδ (20 µM) was incubated with
Data are presented as mean ± s.e.m.
HEPES buffer, n = 3 for the rest). One-way ANOVA with matched time-points, with Geisser-

[2] = Compound stability in aqueous buffers; type: physicochemical
Description: (§1) Compound (1 mM) was incubated with the respective buffers (HEPES 20 mM, 150 mM NaCl, pH = 7.5; 0.2 M sodium acetate buffer, pH = 5.6; 0.2 M sodium citrate buffer, pH = 6.2; 0.2 M potassium phosphate buffer, pH = 7.4, 1 mM EDTA, with or without 10 mM GSH), with 1% DMSO adjusted for all conditions. […] Per cent (%) compound remaining in the solution was estimated by the ratio of areas under the curve, and data plotted were fitted to pseudo-1st kinetics in the calculation of rate constants (k) and half-lives (t1/2), where k is the negative slope of a linear regression of In (% compound remaining) over time. Half-lives (t1/2) in respective buffers and half-lives for GSH adduct formation (t1/2 GSH) were calculated with the following equations:1 t1/2=In2/k 2 kGSH=ktotalconsumptioninphosphatebufferinpresenceofGSH−k(phosphatebufferinabsenceofGSH) 3 t1/2GSH=In2/k(GSH) […]
(§2) a, Percentage (%) of compound remaining was monitored by HPLC-MS and data was fitted to pseudo-first kinetics in calculation of rate constants (k) and half-lives (t1/2) in respective buffers, where k is the negative slope of a linear regression of In (% compound remaining) over time and t 1/2 = In2/k. Initial […]
(§3) Initial GSH concentration =

[3] = molecular target: T1, PDEδ; test: Mass spectrometry analysis of PDEδ adducts after Glu-C digestion; type: binding; parameters: His tag; made in house; host or cells: Escherichia coli Rosetta (BL21DE3), pET plasmids; conditions: LC-MS/MS, 10:1 compound to protein
Description: For each replicate, 1.5 µg covalent adduct of PDEδ sample in PBS buffer was denatured, reduced, alkylated and digested by Glu-C and desalted, together with a negative control of unbound vehicle-treated PDEδ sample prior to mass spectrometry analysis. […] The final mixture containing 6.5 M guanidine hydrochloride was heated at 95 °C for 15 min. Subsequently, after cooling, 0.5 µl of a 50 mM dithiothreitol (DTT, cas 3483-12-3, Gerbu Biotechnik, #1008-100 g) solution was added. […] . Samples were incubated at 37 °C overnight with shaking at 400 rpm, protected from light. […] Desalting was carried out with stage tips with C18 extraction discs (Empore^TM high performance extraction discs, 47 mm, 3 M Bioanalytical Technologies #2215). Each stage tip, which consists of two stacked layers of C18 discs, was activated with methanol (100 µl), washed once with buffer B (100 µl, 0.1% formic acid, 80% acetonitrile), and twice with buffer A (100 µl/time, 0.1% formic acid). After sample loading and washing with buffer A once, the desalted sample was eluted with buffer B (20 µl/sample) and centrifuged at 500×g at room temperature for 5 min. Eluted samples were then dried in a SpeedVac at 30 °C.
Data evaluation was performed using MaxQuant software (v.2.2.0.0)[52]. […] Cleavages by Glu-C were analysed based on the enzyme that was used for digestion. […]

[4] = GSH adduct formation (stability in the presence of GSH); type: physicochemical; conditions: phosphate buffer with 10 mM GSH; 10-fold excess of GSH at 10 mM, phosphate buffer pH 7.4, 37 °C; read-out: half-life for GSH adduct formation t1/2 GSH (converted)
Description: as §1, §2, §3

[5] = molecular target: T1, PDEδ; test: Differential scanning fluorimetry (NanoDSF); type: binding; parameters: His tag; made in house; host or cells: Escherichia coli Rosetta (BL21DE3), pET plasmids; conditions: PDEδ 20 µM, compound 60 µM; mean ± s.d., Fig. 2e; read-out: melting temperature shift ΔTm (NanoDSF)
Description: Afterwards, a sample of the solution was cooled down to room temperature and was loaded onto a capillary, followed by the measurement of fluorescence intensities at 350 nm and 330 nm from 20 °C up to 90 °C (with a rate of increment of 1 °C/min) using the Prometheus Panta device (NanoTemper® Technologies, DE).

[6] = molecular target: T1, PDEδ; test: Competitive fluorescence polarisation assay (FA probe displacement); type: binding; parameters: His tag; made in house; host or cells: Escherichia coli Rosetta (BL21DE3), pET plasmids; conditions: PDEδ 40 nM, FA probe 24 nM, room temperature overnight
[7] = test system: panel of human cell lines; test: Cytotoxicity screening in a panel of human cell lines; type: cell-based; conditions: concentrations up to 25 µM
Description: (§4) Real-time cell analysis (RTCA) was conducted using an Incucyte S3 live-cell analysis system (Sartorius AG, Germany). Adherent cell lines were seeded at 5 × 10³ cells per well in 96-well plates containing 100 µl of culture medium and incubated overnight at 37 °C with 5% CO₂. Following attachment overnight, the medium was replaced with fresh medium containing test compounds, with all conditions adjusted to contain 0.5% DMSO. […] Phase-contrast images (2 images per well) were automatically captured at 2-h intervals until control wells (DMSO-treated) reached full confluency. Cell growth was quantified using the instrument’s integrated Basic Analyser module by applying a confluence mask to calculate the percentage of phase area confluence. For dose-response assessment, confluence values at 72 h post-treatment were normalised to the DMSO control and analysed using GraphPad Prism 9.5.1 (GraphPad Software, USA). Dose-response curves were generated and fitted via four-parameter variable slope nonlinear regression to determine cellular IC₅₀ values.
representative of biological replicates n = 3.
comet images for each condition were shown.
time live-cell imaging by Incucyte.
Source data are provided as […]

[8] = test system: NCI-H358 cells; test: Real-time cell analysis (Incucyte) of proliferation; type: cell-based, human; conditions: read-out: cellular IC50
Description: as §4, with “Adherent cell lines were seeded at 5 × 10³ cells per well in 96-well plates containing 100 µl of culture medium and incubated overnight at 37 °C with 5% CO₂.” left out, “For dose-response assessment, confluence values at 72 h post-treatment were normalised to the DMSO control and analysed using GraphPad Prism 9.5.1 (GraphPad Software, USA).” left out

[9] = test system: PA-TU-8902 cells; test: as above; type: cell-based, human
Description: as §4, with “Adherent cell lines were seeded at 5 × 10³ cells per well in 96-well plates containing 100 µl of culture medium and incubated overnight at 37 °C with 5% CO₂.” left out, “For dose-response assessment, confluence values at 72 h post-treatment were normalised to the DMSO control and analysed using GraphPad Prism 9.5.1 (GraphPad Software, USA).” left out

[10] = test system: SW480 cells; test: as above; type: cell-based, human
Description: as §4, with “Adherent cell lines were seeded at 5 × 10³ cells per well in 96-well plates containing 100 µl of culture medium and incubated overnight at 37 °C with 5% CO₂.” left out, “For dose-response assessment, confluence values at 72 h post-treatment were normalised to the DMSO control and analysed using GraphPad Prism 9.5.1 (GraphPad Software, USA).” left out

[11] = test system: BxPC-3 cells; test: as above; type: cell-based, human
Description: as §4, with “Adherent cell lines were seeded at 5 × 10³ cells per well in 96-well plates containing 100 µl of culture medium and incubated overnight at 37 °C with 5% CO₂.” left out, “For dose-response assessment, confluence values at 72 h post-treatment were normalised to the DMSO control and analysed using GraphPad Prism 9.5.1 (GraphPad Software, USA).” left out

[12] = test system: MIA PaCa-2 cells; test: as above; type: cell-based, human
Description: as §4, with “Adherent cell lines were seeded at 5 × 10³ cells per well in 96-well plates containing 100 µl of culture medium and incubated overnight at 37 °C with 5% CO₂.” left out, “For dose-response assessment, confluence values at 72 h post-treatment were normalised to the DMSO control and analysed using GraphPad Prism 9.5.1 (GraphPad Software, USA).” left out

[13] = test system: Rheb localisation in PA-TU-8902 cells; test: Immunofluorescence staining of Rheb; type: cell-based, human; conditions: 5 µM, overnight
Description: Immunostaining: compound-treated PA-TU-8902 cells were washed once with cold PBS, fixed with 3.7% paraformaldehyde in PBS by incubation at room temperature for 10 min and permeabilised with 0.3% Triton X-100 in PBS by incubation at room temperature for 15 min. […] After washing with PBS-T three times, PBS-incubated cells were imaged with Observer Z1 (Carl Zeiss, Germany) with a 63× oil objective.

[14] = molecular target: PDEδ; conditions: previously developed PDEδ inhibitor chemotypes, Fig. 1b; read-out: KD (reported binding affinity); cited from earlier work
[15] = molecular target: UNC119B (Homo sapiens, UniProt A6NIH7); test: Mass spectrometry analysis of UNC119B adducts after Lys-C digestion; conditions: 10 eq., overnight at 37 °C; including binding pocket p.E174
[16] = Homo sapiens, 72 h, read-out: cellular IC50

Structure (SMILES): Cc1ccc(-n2nc3c(=O)n(CCCC(=O)NCCCCCBr)nc(C)c3c2C)cc1 [2d]
% covalent modification at 24 h [1]: 8 ± 5%

Structure (SMILES): Cc1ccc(-n2nc3c(=O)n(CCCC(=O)N(CCCCl)CC4CCNCC4)nc(C)c3c2C)cc1 [3a]
% covalent modification at 24 h [1]: not reactive enough to yield any detectable covalent adduct

Structure (SMILES): Cc1ccc(-n2nc3c(=O)n(CCCC(=O)N(CCCCCCl)CC4CCNCC4)nc(C)c3c2C)cc1 [3b]
% covalent modification at 24 h [1]: not reactive enough to yield any detectable covalent adduct

Structure (SMILES): Cc1ccc(-n2nc3c(=O)n(CCCC(=O)N(CCCBr)CC4CCNCC4)nc(C)c3c2C)cc1 [3c]
% covalent modification at 24 h [1]: not reactive enough to yield any detectable covalent adduct

Structure (SMILES): Cc1ccc(-n2nc3c(=O)n(CCCC(=O)N(CCCCCBr)CC4CCNCC4)nc(C)c3c2C)cc1 [3d]
% covalent modification at 24 h [1]: 11 ± 4%

Structure (SMILES): Cc1ccc(-n2nc3c(=O)n(CCCC(=O)NCC(C)c4ccccc4)nc(C)c3c2C)cc1 (centres unmarked) [Deltazinone 1, reference compound]
cellular Rheb distribution [13]: loss of inhibition for PDEδ-Rheb interaction | IC50 ([8]; Homo sapiens, NCI-H358, 72 h): 0.14 ± 0.11 µM | % Growth rate of PA-TU-8902 cells ([9]; 25 µM): 29% | % Growth rate of PA-TU-8902 cells ([9]; 50 µM): 23% | growth inhibition ([10]; doses up to 50 µM): little or no growth inhibition | growth inhibition ([11]; doses up to 50 µM): little or no growth inhibition | % Growth rate of MIA PaCa-2 cells ([12]; 25 µM): 96% | % Growth rate of MIA PaCa-2 cells ([12]; 50 µM): 80% | growth inhibition ([12]; MIA PaCa-2, doses up to 50 µM): little or no growth inhibition; also recorded: no anti-proliferative activity

Structure (SMILES): Cc1c(Cl)cccc1NC(=O)CCCn1nc(C)c2c(C)n(-c3ccccc3)nc2c1=O [Deltazinone derivative]
Kd [14]: 0.005 ± 0.002 µM

Structure (SMILES): CCOC(=O)N1CCC(Nc2c(NCCCBr)c(=O)c2=O)CC1 [compound 7]
covalent modification of acid sites in UNC119B [15]: covalently modified

More lines, main results first:

% covalent modification at 24 h [1]: 23 ± 3%
Structure (SMILES): Cc1ccc(-n2nc3c(=O)n(CCCCS(=O)(=O)N(CCCCCBr)CC4CCNCC4)nc(C)c3c2C)cc1 [4b]

half-life at 1 mM ([2]; HEPES buffer, pH 7.5, 37 °C, compound 1 mM, read-out: half-life t1/2 in HEPES buffer (converted)): 85 h | half-life at 1 mM ([2]; acetate buffer, pH 5.6, 37 °C, read-out: half-life t1/2 in acetate buffer (converted)): 43 h | site of covalent modification in PDEδ [3]: either at p.E88 or p.E89 | half-life at 1 mM [4]: 180 days | % covalent modification at 24 h [1]: 62 ± 10% | ΔTm at 60 µM [5]: 14.7 ± 1.2 °C | IC50 [6]: 0.017 ± 0.0061 µM
Structure (SMILES): Cc1ccc(-n2nc3c(=O)n(CCCCS(=O)(=O)N(CCCCCCCBr)CC4CCNCC4)nc(C)c3c2C)cc1 [5e]

ΔTm at 60 µM [5]: 11.3 ± 0.6 °C | IC50 [6]: 0.0137 ± 0.0034 µM
Structure (SMILES): Cc1ccc(-n2nc3c(=O)n(CCCCS(=O)(=O)N(CCCCCCCCl)CC4CCNCC4)nc(C)c3c2C)cc1 [5h]

ΔTm at 60 µM [5]: 11.1 ± 0.6 °C | IC50 ([8]; Homo sapiens, NCI-H358, 72 h, NCI-H358, 72 h): 6.8 ± 1.9 µM | IC50 ([8]; NCI-H358, 72 h): 6.3 ± 1.9 µM | IC50 [10, 16]: > 50 µM | IC50 [11, 16]: > 26 µM | IC50 ([12]; Homo sapiens, MIA PaCa-2, 72 h, read-out: cellular IC50): 10.9 ± 1.9 µM | IC50 [6]: 0.0082 ± 0.004 µM
Structure (SMILES): Cc1ccc(-n2nc3c(=O)n(CCCCS(=O)(=O)N(CCc4cccc(CCCl)c4)CC4CCNCC4)nc(C)c3c2C)cc1 [6b]
general cytotoxicity [7]: not observed | IC50 ([9]; Homo sapiens, PaTu 8902, PA-TU-8902, 72 h, read-out: cellular IC50): 12 ± 1 µM
